Measurements from patent US20260232682A1, “GSPT1 DEGRADER COMPOUNDS” (Captor Therapeutics S.A., priority 2023, published 2026).

Tests used:
[1] = target: T1, [GSPT1]-[compound of formula (I)]-[CRBN/DDB1] complex (Homo sapiens, UniProt P15170+Q96SW2); test: HTRF ternary complex assay (GSPT1); format: binding; conditions: read-out: HTRF ternary complex Average pEC50 by molecule (converted)
In short: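 Compounds in dose-response were incubated 180 min at 25 °C with 48 nM GSPT1 and 52.8 nM 6×His-CRBN/DDB1, plus Streptavidin-Eu cryptate and anti-6×His-d2, in buffer with 1 mM DTT and 0.5% DMSO. TR-FRET (665/620) was normalized to DMSO background and fitted with a Hill slope model for EC50/pEC50.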

[2] = target: T1, [GSPT1]-[compound of formula (I)]-[CRBN/DDB1] complex; test: AlphaLISA ternary complex formation assay (GSPT1); format: binding; conditions: 0.5 h; 1 μM compound; normalized to reference compound CC-885; read-out: Normalized AlphaLISA ternary complex average signal at 1 μM molecule
In short: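 Biotinylated GSPT1 on streptavidin donor beads and 6×His-CRBN/DDB1 on anti-His acceptor beads (each 200 nM before mixing) in HBS pH 7.4 with 0.1% Tween-20 and 1 mM DTT, 2% DMSO final, 30 min at 25 °C. AlphaLISA luminescence is normalized between DMSO background and the reference compound's maximum.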

[3] = target: T2, [SALL4 ZF2]-[compound]-[CRBN/DDB1] ternary complex (Homo sapiens, UniProt Q96SW2+Q9UJQ4); test: AlphaLISA assay for off-target recruitment detection, SALL4 ZF2; format: binding; conditions: 1 μM compound; normalized to Lenalidomide; read-out: Normalized ternary complex response, SALL4 ZF2
T2 construct: SALL4 ZF2
In short: (§1)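 Neo-substrate with 40 μg/ml donor beads and 200 nM 6×His-CRBN/DDB1 with 40 μg/ml anti-His acceptor beads were each prepared in PBS pH 7.4 with Tween-20 and 1 mM DTT, preincubated 30 min at RT, then mixed. Compounds at 2% DMSO were incubated 30 min at 25 °C, read at 680/615 nm, and normalised between DMSO background and reference glue maximum.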

[4] = target: T3, [IKZF1 ZF2]-[compound]-[CRBN/DDB1] ternary complex (Homo sapiens, UniProt Q13422+Q96SW2); test: AlphaLISA assay for off-target recruitment detection, IKZF1 ZF2; format: binding; conditions: 1 μM compound; normalized to Lenalidomide; read-out: Normalized ternary complex response, IKZF1 ZF2
T3 construct: IKZF1 ZF2
In short: as §1

[5] = target: T4, [IKZF2 ZF2]-[compound]-[CRBN/DDB1] ternary complex (Homo sapiens, UniProt Q96SW2+Q9UKS7); test: AlphaLISA assay for off-target recruitment detection, IKZF2 ZF2; format: binding; conditions: 1 μM compound; normalized to Helios modulator; read-out: Normalized ternary complex response, IKZF2 ZF2
T4 construct: IKZF2 ZF2
In short: as §1

GSPT1-HiBiT HEK293 cells = test: Cell Viability-CTG assay accompanying the Nano-Glo HiBiT assay; format: cell-based; conditions: 6 hours treatment, viability of GSPT1-HiBiT HEK293 cells
Protocol: In parallel, the Cell Viability-CTG assay was performed to ensure that the potential decrease of the luminescent signal observed in the Nano-Glo HiBiT assay is a result of protein degradation and not a result of decreasing cell viability. For CTG assay accompanying the Nano-Glo HiBiT assay, cells were cultured, seeded and treated as described above. After 6 hours of incubation (37° C., 5% CO2), plates were removed from the incubator and let to equilibrate to RT. Luminescent signal detection was conducted using the CellTiter-Glo Lumiescent Cell Viability Assay (Promega, cat. nr G7573). 10 μL of the Cell Titer Glo reagent was added per well, plates were shaken to facilitate lysis (460 rpm, 4 min, RT) and incubated in the dark for the following 8 min. Luminescence was read using the CLARIOstar multimode plate reader (BMG LABTECH). The raw data (the relative luminescence unit values, RLU) were uploaded under the relevant protocol and analysed in CDDVault data management platform, in a manner similar to the description above. The Mean Minimum values were calculated in CDDVault using non-linear regression and appropriate equations.

T1 sequence (P15170 whole entry): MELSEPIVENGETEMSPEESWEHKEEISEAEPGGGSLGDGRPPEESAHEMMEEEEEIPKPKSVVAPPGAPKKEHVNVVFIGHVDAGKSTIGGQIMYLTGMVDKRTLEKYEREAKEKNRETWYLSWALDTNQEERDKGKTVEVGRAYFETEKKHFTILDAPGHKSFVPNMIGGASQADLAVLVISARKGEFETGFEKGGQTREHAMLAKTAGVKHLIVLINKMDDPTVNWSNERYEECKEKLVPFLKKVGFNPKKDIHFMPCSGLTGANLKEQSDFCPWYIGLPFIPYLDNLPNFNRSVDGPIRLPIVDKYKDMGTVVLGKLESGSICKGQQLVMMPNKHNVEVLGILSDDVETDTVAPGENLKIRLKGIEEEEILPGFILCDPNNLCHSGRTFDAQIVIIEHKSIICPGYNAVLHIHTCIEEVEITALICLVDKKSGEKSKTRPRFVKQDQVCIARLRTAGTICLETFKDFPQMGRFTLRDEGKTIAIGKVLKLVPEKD
T1 sequence (Q96SW2 whole entry): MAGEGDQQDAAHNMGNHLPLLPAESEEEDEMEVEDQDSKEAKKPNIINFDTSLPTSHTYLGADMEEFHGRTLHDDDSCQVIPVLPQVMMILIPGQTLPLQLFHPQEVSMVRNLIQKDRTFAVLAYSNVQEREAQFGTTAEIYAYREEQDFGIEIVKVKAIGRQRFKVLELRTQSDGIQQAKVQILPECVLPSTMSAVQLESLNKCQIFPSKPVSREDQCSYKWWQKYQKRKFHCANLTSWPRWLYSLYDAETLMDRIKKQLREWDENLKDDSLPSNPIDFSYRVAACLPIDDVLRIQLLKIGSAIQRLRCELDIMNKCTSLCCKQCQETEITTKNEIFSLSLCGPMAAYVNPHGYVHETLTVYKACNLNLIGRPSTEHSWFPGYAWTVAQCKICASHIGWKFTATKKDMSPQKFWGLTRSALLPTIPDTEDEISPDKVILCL
T1 sequence (Q16531 whole entry partner): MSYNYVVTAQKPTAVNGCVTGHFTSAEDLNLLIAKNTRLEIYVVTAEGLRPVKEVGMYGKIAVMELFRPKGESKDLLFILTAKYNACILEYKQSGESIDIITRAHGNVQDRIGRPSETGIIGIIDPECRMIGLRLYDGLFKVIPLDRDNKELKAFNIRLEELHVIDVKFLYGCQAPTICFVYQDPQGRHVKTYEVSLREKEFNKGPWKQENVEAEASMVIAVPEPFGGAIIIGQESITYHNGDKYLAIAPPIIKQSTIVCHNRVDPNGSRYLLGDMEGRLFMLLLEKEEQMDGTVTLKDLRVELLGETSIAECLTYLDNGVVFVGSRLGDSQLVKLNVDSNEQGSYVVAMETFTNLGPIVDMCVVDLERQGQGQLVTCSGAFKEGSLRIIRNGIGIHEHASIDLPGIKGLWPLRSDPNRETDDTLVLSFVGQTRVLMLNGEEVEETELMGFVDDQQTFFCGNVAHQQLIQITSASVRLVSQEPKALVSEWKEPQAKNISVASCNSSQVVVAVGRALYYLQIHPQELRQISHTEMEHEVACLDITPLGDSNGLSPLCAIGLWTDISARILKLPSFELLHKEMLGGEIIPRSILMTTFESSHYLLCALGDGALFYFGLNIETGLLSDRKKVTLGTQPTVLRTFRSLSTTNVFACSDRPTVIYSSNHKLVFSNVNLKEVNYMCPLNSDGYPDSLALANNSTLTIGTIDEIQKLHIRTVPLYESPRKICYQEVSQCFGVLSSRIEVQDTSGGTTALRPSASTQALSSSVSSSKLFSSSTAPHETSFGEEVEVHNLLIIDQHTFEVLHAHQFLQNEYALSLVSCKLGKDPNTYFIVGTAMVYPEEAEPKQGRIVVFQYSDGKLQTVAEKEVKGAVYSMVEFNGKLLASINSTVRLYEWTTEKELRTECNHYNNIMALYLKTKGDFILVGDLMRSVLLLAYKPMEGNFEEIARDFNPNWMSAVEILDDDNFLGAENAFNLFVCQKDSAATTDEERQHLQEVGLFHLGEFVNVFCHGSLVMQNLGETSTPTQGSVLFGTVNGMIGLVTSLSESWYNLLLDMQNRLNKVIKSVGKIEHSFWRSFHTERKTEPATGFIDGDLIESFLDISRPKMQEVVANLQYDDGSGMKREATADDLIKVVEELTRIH
T3 sequence (Q13422 145-167 limits assumed): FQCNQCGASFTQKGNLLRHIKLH
T3 sequence (Q96SW2 whole entry): as the sequence (Q96SW2 whole entry) above
T3 sequence (Q16531 whole entry partner): as the sequence (Q16531 whole entry partner) above
T2 sequence (Q9UJQ4 410-432 limits assumed): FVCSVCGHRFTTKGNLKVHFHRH
T2 sequence (Q96SW2 whole entry): as the sequence (Q96SW2 whole entry) above
T2 sequence (Q16531 whole entry partner): as the sequence (Q16531 whole entry partner) above
T4 sequence (Q9UKS7 140-162 limits assumed): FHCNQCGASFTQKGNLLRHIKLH
T4 sequence (Q96SW2 whole entry): as the sequence (Q96SW2 whole entry) above
T4 sequence (Q16531 whole entry partner): as the sequence (Q16531 whole entry partner) above

For `Cc1nc2cc(COC(=O)Nc3ccc(C(C)(C)C)cc3)ccc2cc1C1CCC(=O)NC1=O` (stereo not drawn) [Compound 8, (3-(2,6-dioxopiperidin-3-yl)-2-methylquinolin-7-yl)methyl (4-(tert-butyl)phenyl)carbamate], the EC50 [1] was 316 to 3160 nM, the activation at 1 µM [2] was greater than 50% and the activation at 1 µM [3] was less than 10%. For the same molecule, the activation at 1 µM [4] was less than 10%, the activation at 1 µM [5] was less than 10% and the “CTG assay Mean minimum” value (GSPT1-HiBiT HEK293 cells) was “++++ (++++≥75% of viability of the HiBiT-GSPT1 HEK293 cells)”.
Work on `Cc1nc2cc(COC(=O)Nc3ccc(Cl)c(Cl)c3)ccc2cc1C1CCC(=O)NC1=O` (stereo not drawn) [Compound 12, (3-(2,6-dioxopiperidin-3-yl)-2-methylquinolin-7-yl)methyl (3,4-dichlorophenyl)carbamate] yielded an EC50 [1] of 316 to 3160 nM, an activation at 1 µM [2] of 10 to 50% and an activation at 1 µM [3] of less than 10%. The activation at 1 µM [4] was less than 10%, the activation at 1 µM [5] was less than 10% and the “CTG assay Mean minimum” value (GSPT1-HiBiT HEK293 cells) was “++++ (++++≥75% of viability of the HiBiT-GSPT1 HEK293 cells)”.
In the case of `Cc1ccc(NC(=O)OCc2ccc3cc(C4CCC(=O)NC4=O)c(C)nc3c2)cc1Cl` (stereo not drawn) [Compound 4, (3-(2,6-dioxopiperidin-3-yl)-2-methylquinolin-7-yl)methyl (3-chloro-4-methylphenyl)carbamate], the EC50 [1] was 316 to 3160 nM, the activation at 1 µM [2] was greater than 50% and the activation at 1 µM [3] was less than 10%. The activation at 1 µM [4] was less than 10%, the activation at 1 µM [5] was less than 10% and the “CTG assay Mean minimum” value (GSPT1-HiBiT HEK293 cells) was “++++ (++++≥75% of viability of the HiBiT-GSPT1 HEK293 cells)”.
`Cc1ccc(NC(=O)NCc2ccc3cc(N4CCC(=O)NC4=O)c(C)nc3c2)cc1Cl` [Compound 27, 1-(3-chloro-4-methylphenyl)-3-((3-(2,4-dioxotetrahydropyrimidin-1(2H)-yl)-2-methylquinolin-7-yl)methyl)urea] showed an EC50 [1] of less than 316 nM, an activation at 1 µM [2] of 10 to 50% and an activation at 1 µM [3] of less than 10%. The activation at 1 µM [4] was less than 10%, the activation at 1 µM [5] was less than 10% and the “CTG assay Mean minimum” value (GSPT1-HiBiT HEK293 cells) was “++++ (++++≥75% of viability of the HiBiT-GSPT1 HEK293 cells)”.
For `Cc1nc2cc(COC(=O)Nc3ccc4c(c3)OCO4)ccc2cc1C1CCC(=O)NC1=O` (stereo not drawn) [Compound 14, (3-(2,6-dioxopiperidin-3-yl)-2-methylquinolin-7-yl)methyl benzo[d][1,3]dioxol-5-ylcarbamate], the EC50 [1] was 316 to 3160 nM, the activation at 1 µM [2] was 10 to 50% and the activation at 1 µM [3] was less than 10%. For the same molecule, the activation at 1 µM [4] was less than 10%, the activation at 1 µM [5] was less than 10% and the “CTG assay Mean minimum” value (GSPT1-HiBiT HEK293 cells) was “++++ (++++≥75% of viability of the HiBiT-GSPT1 HEK293 cells)”.
`Cc1ccc(NC(=O)OCc2ccc3nc(C)c(N4CCC(=O)NC4=O)cc3c2)cc1Cl` [Compound 29, (3-(2,4-dioxotetrahydropyrimidin-1(2H)-yl)-2-methylquinolin-6-yl)methyl (3-chloro-4-methylphenyl)carbamate] showed an EC50 [1] greater than 3160 nM, an activation at 1 µM [2] of 10 to 50% and an activation at 1 µM [3] of 25 to 50%. For the same molecule, the activation at 1 µM [4] was 10 to 25%, the activation at 1 µM [5] was less than 10% and the “CTG assay Mean minimum” value (GSPT1-HiBiT HEK293 cells) was “++++ (++++≥75% of viability of the HiBiT-GSPT1 HEK293 cells)”.
In the case of `COc1ccc(NC(=O)OCc2ccc3cc(C4CCC(=O)NC4=O)c(C)nc3c2)nn1` (stereo not drawn) [Compound 45, (3-(2,6-dioxopiperidin-3-yl)-2-methylquinolin-7-yl)methyl (6-methoxypyridazin-3-yl)carbamate], the EC50 [1] was 316 to 3160 nM, the activation at 1 µM [2] was 10 to 50% and the activation at 1 µM [3] was less than 10%. For the same molecule, the activation at 1 µM [4] was less than 10%, the activation at 1 µM [5] was less than 10% and the “CTG assay Mean minimum” value (GSPT1-HiBiT HEK293 cells) was “++++ (++++≥75% of viability of the HiBiT-GSPT1 HEK293 cells)”.
In the case of `Cc1ccc(NC(=O)OCc2ccc3cc(C4(F)CCC(=O)NC4=O)c(C)nc3c2)cc1Cl` (stereo not drawn) [Compound 74, (3-(3-fluoro-2,6-dioxopiperidin-3-yl)-2-methylquinolin-7-yl)methyl (3-chloro-4-methylphenyl)carbamate], the EC50 [1] was greater than 3160 nM, the activation at 1 µM [2] was 10 to 50% and the activation at 1 µM [3] was less than 10%. For the same molecule, the activation at 1 µM [4] was less than 10%, the activation at 1 µM [5] was less than 10% and the “CTG assay Mean minimum” value (GSPT1-HiBiT HEK293 cells) was “++++ (++++≥75% of viability of the HiBiT-GSPT1 HEK293 cells)”.
Work on `Cc1ccc(NC(=O)OCc2ccc3cc(C4CCC(=O)NC4=O)c(C)nc3c2F)cc1Cl` (stereo not drawn) [Compound 50, (3-(2,6-dioxopiperidin-3-yl)-8-fluoro-2-methylquinolin-7-yl)methyl (3-chloro-4-methylphenyl)carbamate] yielded an EC50 [1] of 316 to 3160 nM, an activation at 1 µM [2] greater than 50% and an activation at 1 µM [3] of less than 10%. The activation at 1 µM [4] was less than 10%, the activation at 1 µM [5] was less than 10% and the “CTG assay Mean minimum” value (GSPT1-HiBiT HEK293 cells) was “++++ (++++≥75% of viability of the HiBiT-GSPT1 HEK293 cells)”.
Work on `Cc1nc2ccc(CNC(=O)Nc3cc(C(C)(C)C)no3)cc2cc1N1CCC(=O)NC1=O` [Compound 67, 1-(3-(tert-butyl)isoxazol-5-yl)-3-((3-(2,4-dioxotetrahydropyrimidin-1(2H)-yl)-2-methylquinolin-6-yl)methyl)urea] yielded an EC50 [1] of less than 316 nM, an activation at 1 µM [2] greater than 50% and an activation at 1 µM [3] of 25 to 50%. For the same molecule, the activation at 1 µM [4] was no less than 50%, the activation at 1 µM [5] was 25 to 50% and the “CTG assay Mean minimum” value (GSPT1-HiBiT HEK293 cells) was “++++ (++++≥75% of viability of the HiBiT-GSPT1 HEK293 cells)”.
With `Cc1nc2cc(COC(=O)Nc3ccc(C(C)(C)C)c(Cl)c3)ccc2cc1C1CCC(=O)NC1=O` (stereo not drawn) [Compound 10, (3-(2,6-dioxopiperidin-3-yl)-2-methylquinolin-7-yl)methyl (4-(tert-butyl)-3-chlorophenyl)carbamate] the EC50 [1] was less than 316 nM, the activation at 1 µM [2] was 10 to 50% and the activation at 1 µM [3] was less than 10%. For the same molecule, the activation at 1 µM [4] was less than 10%, the activation at 1 µM [5] was less than 10% and the “CTG assay Mean minimum” value (GSPT1-HiBiT HEK293 cells) was “++++ (++++≥75% of viability of the HiBiT-GSPT1 HEK293 cells)”.
Molecule `Cc1nc2ccc(COC(=O)Nc3cc(C(C)(C)C)no3)cc2cc1N1CCC(=O)NC1=O` [Compound 66, (3-(2,4-dioxotetrahydropyrimidin-1(2H)-yl)-2-methylquinolin-6-yl)methyl (3-(tert-butyl)isoxazol-5-yl)carbamate] has an EC50 [1] of 316 to 3160 nM, an activation at 1 µM [2] greater than 50% and an activation at 1 µM [3] of 25 to 50%. The activation at 1 µM [4] was 25 to 50%, the activation at 1 µM [5] was 10 to 25% and the “CTG assay Mean minimum” value (GSPT1-HiBiT HEK293 cells) was “++++ (++++≥75% of viability of the HiBiT-GSPT1 HEK293 cells)”.
Work on `Cc1ccc(NC(=O)NCc2ccc3nc(C)c(N4CCC(=O)NC4=O)cc3c2)cc1Cl` [Compound 51, 1-(3-chloro-4-methylphenyl)-3-((3-(2,4-dioxotetrahydropyrimidin-1(2H)-yl)-2-methylquinolin-6-yl)methyl)urea] yielded an EC50 [1] of less than 316 nM, an activation at 1 µM [2] of 10 to 50% and an activation at 1 µM [3] of no less than 50%. For the same molecule, the activation at 1 µM [4] was 25 to 50%, the activation at 1 µM [5] was 10 to 25% and the “CTG assay Mean minimum” value (GSPT1-HiBiT HEK293 cells) was “++++ (++++≥75% of viability of the HiBiT-GSPT1 HEK293 cells)”.
Work on `Cc1nc2cc(COC(=O)Nc3cc(C(F)(F)F)n[nH]3)ccc2cc1C1CCC(=O)NC1=O` (stereo not drawn) [Compound 69, (3-(2,6-dioxopiperidin-3-yl)-2-methylquinolin-7-yl)methyl (3-(trifluoromethyl)-1H-pyrazol-5-yl)carbamate] yielded an EC50 [1] of 316 to 3160 nM, an activation at 1 µM [2] greater than 50% and an activation at 1 µM [3] of less than 10%. The activation at 1 µM [4] was less than 10%, the activation at 1 µM [5] was less than 10% and the “CTG assay Mean minimum” value (GSPT1-HiBiT HEK293 cells) was “++++ (++++≥75% of viability of the HiBiT-GSPT1 HEK293 cells)”.
For `Cc1nc2cc(COC(=O)Nc3nc(C(C)(C)C)no3)ccc2cc1C1CCC(=O)NC1=O` (stereo not drawn) [Compound 80, (3-(2,6-dioxopiperidin-3-yl)-2-methylquinolin-7-yl)methyl (3-(tert-butyl)-1,2,4-oxadiazol-5-yl)carbamate], the EC50 [1] was 316 to 3160 nM, the activation at 1 µM [2] was greater than 50% and the activation at 1 µM [3] was less than 10%. The activation at 1 µM [4] was less than 10%, the activation at 1 µM [5] was less than 10% and the “CTG assay Mean minimum” value (GSPT1-HiBiT HEK293 cells) was “++++ (++++≥75% of viability of the HiBiT-GSPT1 HEK293 cells)”.
